In patent US20180280349A1, “METHODS OF TREATING CYSTIC FIBROSIS IN PATIENTS WITH RESIDUAL FUNCTION MUTATIONS” (Vertex Pharmaceuticals Incorporated, priority 2017, published 2018):

Tests used:
[1] = tested on: cystic fibrosis patients heterozygous for the F508del mutation and a CFTR residual function mutation; test: Second clinical trial: eight-week, randomized, double-blind, ivacaftor-controlled, parallel-group study in 150 CF patients; format: in vivo, human; conditions: active comparator treatment period
Description: A second clinical trial was conducted with 150 cystic fibrosis patients aged 12 years and older Who were heterozygous for the F508del mutation and a CFTR residual function mutation. This trial was an eight-week, randomized, double-blind, ivacaftor-controlled, parallel-group study in CF patients. Patients were randomized 1:1 to receive tezacaftor/ivacaftor or ivacaftor following a four-week run in of ivacaftor. The mean ppFEV1 at baseline was 64.3%. The treatment difference between tezacaftor/ivacaftor and ivacaftor-treated patients for absolute change in ppFEV1 (primary endpoint) through Week 8 in the active comparator treatment period was 0.3 percentage points.
Results for tezacaftor/ivacaftor- and ivacaftor-treated patients were similar for absolute change in ppFEV1, relative change in ppFEV1 and CFQ-R Respiratory Domain Score. In the active comparator treatment period, the mean absolute change in ppFEV 1 was 0.5% in the tezacaftor/ivacaftor group and 0.2% in the ivacaftor group; the mean relative change in ppFEV1 was 1.3% in the tezacaftor/ivacaftor group and 0.5% in the ivacaftor group; and the mean absolute change in the pooled CFQ-R respiratory domain score was 0.7 points in the tezacaftor/ivacaftor group and −2.1 points in the ivacaftor group. There was a reduction in sweat chloride in tezacaftor/ivacaftor-treated patients compared to the ivacaftor group (−5.8 mmol/L).

[2] = tested on: cystic fibrosis patients with splice and missense mutations; test: Clinical trial in 248 cystic fibrosis patients with splice and missense (residual function) mutations: placebo, Compound II alone, Compound I and Compound II; format: in vivo, human; conditions: 100 mg Compound I every 24 hours, 150 mg Compound II every 12 hours
Description: A clinical trial was conducted with 248 cystic fibrosis patients with splice and missense mutations. Mutations were selected for the study based on the clinical phenotype (pancreatic sufficiency), biomarker data (sweat chloride), and in vitro responsiveness to tezacaftor/ivacaftor. The patients were assigned to one of three treatment groups: placebo, Compound II alone, and Compound I and Compound II. […] As shown in.

CC(C)(C)c1cc(C(C)(C)C)c(NC(=O)c2c[nH]c3ccccc3c2=O)cc1O [Compound II, N-(2,4-di-tert-butyl-5-hydroxyphenyl)-4-oxo-1,4-dihydroquinoline-3-carboxamide]
mean absolute change in the pooled CFQ-R respiratory domain score [1]: −2.1 points
mean relative change in ppFEV1 [1]: 0.5%
mean absolute change in ppFEV1 ([1]; after four-week run in of ivacaftor): 0.2%
increase in CFQ-R score ([2]; after 8 weeks of treatment): 9.7 points
increase in ppFEV1 (percent predicted forced expiratory volume in one second) ([2]; average change from baseline after 4 and 8 weeks of treatment): 4.7 percentage points
